{"source": "patent US6417159B1", "about": "(Queen's University at Kingston, priority 1996, dated 2002)", "key": {"[1]": {"system": "PC12 cells", "assay": "NGF-mediated neurite growth by PC12 cells", "type": "cell-based, rat", "method": "(§1) PC12 cells or PC12^nnr5 cells (Loeb et al., 1991) were seeded on poly-D-lysine-coated (0.1 mg·ml^−1, overnight) 96-well microculture dishes (Falcon) at approximately 800 cells per well with RPMI with 10% fetal calf serum. Peptides were added to replicate wells 48 hours before, or at the time of, addition of NGF. NGF was prepared by the method of Mobley et al. (1976) and used at 1-2 nM. Other additives were diluted at least 100-fold and added to the wells as described. At various times following incubation at 37° C., 5% CO2, wells were scored for neurite-bearing cells by serial counting of representative circumferences of each well.\n(§2) A Leitz Diavert inverted microscope with phase optics was used to score neurite growth. For both PC12 cells and sensory neurons, a neurite was scored as such if its calibre from origin to terminal was approximately the same and the length was equal to or greater than 1.5 cell body diameters."}, "[2]": {"system": "embryonic 19 day rat DRG neurons", "assay": "NGF-mediated neurite growth by ED19 rat DRG neurons", "type": "cell-based", "method": "Dissociated cells enriched for sensory neurons from DRG of ED8 chick or ED19 rat were prepared as described in detail previously (Sutter et al., 1979a). ED19 rat DRG dissociates were not pre-plated pror to bioassay. Cells were seeded into wells of Terasaki plates previously treated with poly-D-lysine at 700-900 per well in supplemented Ham's F12 medium with 2.5% fetal calf serum and NGF at concentrations between 0.04 and 40 pM. The cells were incubated with the additives as described at 37° C., 5% CO2, and scored at various times for neurite growth by counting all cells on the lower horizontal surface of the wells, which is approximately 15% of the surface area of the top of the tapered wells.\nas §2"}, "[3]": {"system": "PC12^nnr5 cells", "assay": "NGF-mediated neurite growth by PC12nnr5 cells", "type": "cell-based, rat", "conditions": "absence or presence of R3 peptide", "method": "as §1, §2"}, "[4]": {"system": "PC12 cells", "assay": "Acid phosphatase assay of cell survival, PC12 cells", "type": "cell-based, rat", "conditions": "PC12 (high-TrkA), serum-free conditions", "method": "(§3) This is a colorimetric assay which measures the lysosomal enzyme acid phosphatase to determine cell number (Connolly et al., 1986) modified by Ueda et al. (1994) for use with cultured neuronal cells. Medium was removed gently from PC12 or PC12^nnr5 cells cultured in 96 well plates and well were washed once with 200 μl PBS. Then 100 μl of buffer containing 0.1M sodium acetate pH 5.5, 0.1% TRITON™ X-100, and 10 mM p-nitrophenyl phosphate (Sigma 104 phosphatase substrate) was added to each well. Plates were placed in a 37° C., 5% CO2 incubator for 3 hours. The reaction was stopped by the addition of 10 μl/well of 1N sodium hydroxide and the colour development measured at 405 nm using a microplate reader (Titertek). The first column on each plate contained no cells (buffer only) and was used as a blank. The relationship between cell number and enzyme activity was linear over the range 1000 to 15,000 cells.\n(§4) To exclude the possibility that the effects of R3 on neurite growth in the experiments described above were indirect and mediated by an influence on cell survival, PC12 and PC12^nnr5 cells were exposed to serum free conditions in the absence and presences of NGF, and in the absence and presence of R3. […] Nor was there any difference in NGF-mediated survival whether R3 exposure occurred before or at the same time as NGF exposure. […]"}, "[5]": {"system": "PC12^nnr5 cells", "assay": "Acid phosphatase assay of cell survival, PC12nnr5 cells", "type": "cell-based, rat", "conditions": "PC12nnr5 (low-TrkA), serum-free conditions", "method": "as §3, §4"}, "[6]": {"system": "PC12 cells", "assay": "MTT assay of mitochondrial function", "type": "cell-based, rat", "method": "A colorimetric assay measuring the number and respiratory activity of surviving cells (Mossman, 1983) was used to monitor the effect of the synthetic peptides on PC12 cells. Culture plates (96-233, Flow, flat bottom) were seeded with 4,000 cells per well and received treatment identical to the cells read for neurite formation. At the indicated times, the medium was removed from the wells with a Pasteur pipette and replaced with 110 μl of RPMI+10% fetal calf serum containing 0.45 mg·ml^−1 MTT (Sigma) and the plate were returned to a humidified, 5% CO2 incubator for 4 hours. 100 μl of 0.4N HCl in isopropanol was then added to each well with trituration (approximately 50 times) to solublize the formazan. The plates were read 10 minutes later in a flow Titertek Multiskan equipped with a 570 nm filter, and the optical density values obtained were corrected for cell-free blank. In each experiment, the values are the average of at least triplicate determinations normalized to its control. The MTT dye conversion was linear with number of viable cells over the range seeded, i.e. 2000 to 10,000 cells per well."}, "[7]": {"system": "PC12 cells", "assay": "Binding of [125I]NGF to PC12 cells", "parameters": "species or system rat", "conditions": "co-incubated with [125I]NGF", "method": "(§5) PC12 cells were removed from culture dishes with CMF, washed, and incubated at a concentration of 10^6 per ml in Hepes-Krebs-Ringer (HKR) buffer buffer with 1 mg·ml^−1 BSA for 90 minutes at 37° C. in the presence of 40 pM [^125I]NGF in the absence and presence of excess unlabeled NGF, and in the absence and presence of R3 peptide. Aliquots of 100 μl were removed in replicates and mircocentrifuged at 10,000×g for 1 minute. Supernatants were removed, tips were cut from the microcentrifuge tube and counted in a gamma counter. Specific binding was defined as the difference between binding of the ligand in the absence and presence of unlabeled NGF, and fractional specific binding in the absence and presence of R3 peptide was compared. Studies of [^125I]NGF uptake into PC12 and PC12^nnr5 cells were carried out in the absence and presence of 10 μM R3 peptide and following a 24-hour exposure of PC12 cultures to 10 μM R3 peptide. Cells were eposed to 20 pM or 0.2 nM [^125I]NGF for periods of time up to 240 minutes (steady state) at 37° C. The cells were then briefly acid-washed as described by Bernd and Greene (1984), and aliquots were prepared for gamma counting as described. NGF was radioiodinated as described in Sutter et al. (1979b)."}, "[8]": {"system": "PC12^nnr5 cells", "assay": "Uptake of [125I]NGF into PC12nnr5 cells", "type": "cell-based, rat", "conditions": "20 pM or 0.2 nM [125I]NGF; saturating R3", "method": "as §5"}}}
{"sequence": "LDALLAALRRIQR [R3]", "values": [{"measurement": "Effect of R3 on enhancement of NGF-mediated neurite growth in presence of Mg2+, in words", "setting": "[1]; 10 mM Mg^+2", "value": "inhibited completely"}, {"measurement": "Neurite growth-enhancing effect of R3 in presence of pertussis toxin, in words", "setting": "[1]; PC12 cells pre-treated with pertussis toxin", "value": "did not influence"}, {"measurement": "Effect on NGF-mediated neurite growth, co-incubation, in words", "setting": "[1]; PC12 cells, peptide co-incubated with NGF", "value": "enhanced temporally the neurite growth response"}, {"measurement": "Time of maximal effect on NGF-mediated neurite growth", "setting": "[1]; all concentrations of R3", "value": "40 to 48", "unit": "h"}, {"measurement": "Effect on neurite growth response to NGF, pre-incubation, in words", "setting": "[1]; peptide present 24 or 48 hours prior to addition of NGF", "value": "inhibited transiently"}, {"measurement": "Effect on NGF-mediated neurite growth, co-incubation, in words", "setting": "[2]", "value": "enhancing effect"}, {"measurement": "Neurite growth in PC12nnr5 cells with NGF, in words", "setting": "[3]", "value": "no effects on neurite growth"}, {"measurement": "Influence on NGF-mediated cell survival, in words", "setting": "[4]", "value": "no influence on NGF-mediated survival"}, {"measurement": "Influence on NGF-mediated cell survival, in words", "setting": "[5]", "value": "no influence on NGF-mediated survival"}, {"measurement": "Mitochondrial succinate dehydrogenase activity (MTT), in words", "setting": "[6]", "value": "not enhanced"}, {"measurement": "Effect on [125I]NGF binding, in words", "setting": "[7]", "value": "no effect on steady-state total or non-displaceable binding"}, {"measurement": "Rates of [125I]NGF uptake, in words", "setting": "[8]", "value": "not influenced"}]}
